Legend:
Type in all cases: in vivo
ICR mice [1] = experiment: Itching induced by histamine in ICR mice, oral administration; details: for antipruritic effects (in words): histamine; for % Inhibition (mean ± SE): scratching frequency over 30 min, histamine 100 nmol/mouse i.d. 1 h after dosing
From the text: Itching Induced by Histamine in ICR Mice
It is known that the itching response induced by histamine in rodents is generally weaker than that in humans (Kuraishi et al., 1995, Eur. J. Pharmacol. 275, pp 229-233). However, it is known that uniquely, ICR mice sensitively respond to histamine, and this leads to itching response (Maekawa et al., 2000, Jpn. J. Pharmacol. 84, pp 462-466). As is widely known, histamines are representative itching mediators and obviously induce itching in human subjects (Simone et al., 1987, Somatosens. Res. 5, pp 81-92). In this experiment, ICR mice received […]. One day before the experiment, the rostral part of the skin on the back of male ICR mice (28˜32 g, 5˜8 mice/group was clipped. The mice were fasted for 18 hours before experimentation. The drug (compound 1, 0.5 ml/mouse) was dissolved in hydroxypropyl-β-cyclodextrin (HP-β-CD; Mitsubishi Ltd., Japan), and then orally administered to the mice. One hour after the administration, histamine (100 nmol/50 μl/mouse) was dissolved in a physiological saline solution and injected intradermally into the back skin of mice. Immediately after the injection, the mice were placed in a transparent cage, and then the frequency of scratching of the injected site by the hind paws was counted for 30 minutes. The frequency of scratching in test groups administered with the drug was compared to that in a control group administered with histamine alone. The decrease in the frequency of scratching in the test groups was determined as an index of inhibitory effects on itching. The decrease in the frequency of scratching was expressed as a percentage of inhibition to determine inhibitory effects of each compound on itching.

ICR mice [2] = experiment: Inhibition of skin irritation induced by tacrolimus in ICR mice; details: intradermal; for % Inhibition (mean ± SE): scratching frequency over 30 min, tacrolimus 50 μg/mouse i.d.
From the text: Inhibition of Skin Irritation Induced by Tacrolimus in ICR Mice
Subcutaneous Administration
Tacrolimus is an immunosuppressant widely used in liver and renal transplantation (Lawrence, 1998, Dermatol. Ther., 5, pp 74-84). Tacrolimus is currently used in the form of ointment for treating skin diseases, such as atopic dermatitis (Wollenberg et al., 2001, J. Allergy. Clin. Immunol., 107, pp 519-525), psoriasis (Nasr, 2000, Clin. Exp. Dermatol., 25, pp 250-254), allergic contact dermatitis (Lauerma et al., 1992, Lancet, 340, p 556), and the like. However, it was reported that tacrolimus enhances irritation in human models with irritant contact dermatitis (Fuchs et al., 2002, Contact dermatitis, 46, pp 290-294). It was reported that tacrolimus causes side effects, such as skin irritation, itching and erythema, in its initial stage of use (Gupta et al., 2002, JEADV, 16, pp 100-114; Gupta and Chow, 2003, JEADV, 17, pp 493-503). No experimental model of skin irritation by tacrolimus in animal experiments is currently known. Accordingly, tacrolimus as a skin-irritant substance was directly injected to ICR mice by intradermal injection, and then scratching behavior of the mice was observed. One day before the experiment, the rostral part of the skin on the back male ICR mice (30˜33 g, 10 mice/group) was clipped. After the drug (compound 1, 50 μl/mouse) was dissolved in 28% hydroxypropyl-β-cyclodextrin (HP-β-CD; Mitsubishi Ltd., Japan) and tacrolimus (50 μg/50 μl/mouse, Cipla, India) was dissolved in a physiological saline solution containing 5% ethanol and 5% Tween 80, the solutions were simultaneously injected intradermally into the back skin of mice. Immediately after the injection, the mice were placed in a transparent cage and then the frequency of scratching of the injected site by the hind paws was counted for 30 minutes. The frequency of scratching in test groups administered with the drug was compared to that in a group administered with tacrolimus alone. […] The decrease in the frequency of scratching was expressed as a percentage of inhibition to determine inhibitory effects of each compound on skin irritation.

ICR mice [3] = experiment: Itching induced by compound 48/80 (C48/80) in ICR mice, intradermal administration; details: for inhibitory effects on itching (in words): C48/80, ICR mice; for % Inhibition (mean ± SE): scratching frequency over 60 min, C48/80 50 μg/mouse i.d., ICR mice
From the text: Itching Induced by Compound 48/80 (C48/80) in ICR Mice
Intradermal Administration
ICR mice suffer from itching upon administration of histamines, and C48/80 (condensation product of N-methyl-p-methoxyphenethylamine with formaldehyde, Sigma, U.S.A.) is a substance that stimulates connective tissues and skin mast cells to release mediators, such as histamines, causing itching. C48/80 causes itching when intradermally administered to humans (Rukwied et al., 2000, Br. J. Pharmacol., 142, pp 1114-1120). In this experiment, ICR mice received C48/80 to induce itching. One day before the experiment, the rostral part of the skin on the back of male ICR mice (28˜32 g, 4˜11 mice/group) was clipped. After the drug (compound 1, 50 μl/mouse) was dissolved in hydroxypropyl-β-cyclodextrin (HP-β-CD; Mitsubishi Ltd., Japan) and C48/80 (50 μg/50 μl/mouse) was dissolved in a physiological saline solution, the solutions were simultaneously injected intradermally into the back skin of mice. Immediately after the injection, the mice were placed in a transparent cage and then the frequency of scratching of the injected site by the hind paws was counted for 60 minutes. The frequency of scratching in test groups administered with the drug was compared to that in a control group administered with C48/80 alone. The decrease in the frequency of scratching in the test groups was determined as an index of inhibitory effects on itching. The decrease in the frequency of scratching was expressed as a percentage of inhibition to determine inhibitory effects of each compound on itching.

BALB/C mice = experiment: Itching induced by compound 48/80 (C48/80) in BALB/C mice, oral administration; details: for % Inhibition (mean ± SE): scratching frequency over 30 min, C48/80 1 h after dosing, BALB/C mice; for inhibitory effects on itching (in words): C48/80, BALB/C mice
From the text: Itching Induced by Compound 48/80 (C48/80) in BALB/C Mice
The frequency of scratching induced by an itching-inducing substance varies depending on mouse strain. For example, it was reported that BALB/C mice are less sensitive to histamines and serotonin than ICR mice (Inagaki et al., 2001, Skin Pharmacol. Appl. Skin Physiol., 14, pp 87-96). […] In this experiment, BALB/C mice received C48/80 to induce itching. One day before the experiment, the rostral part of the skin on the back of BALB/C mice (19˜21 g, 6˜12 mice/group) was clipped. After compound 1 was dissolved in HP-β-CD, and compounds 2 and 3 were dissolved in a physiological saline solution containing 10% ethanol and 10% Tween 80, the solutions were orally administered (10 ml/kg) to the mice. One hour after the administration, C48/80 (50 μg/50 μl/mouse) was dissolved in a physiological saline solution and injected intradermally into the back skin of mice. Immediately after the injection, the mice were housed in a transparent cage and then the frequency of scratching of the injected site by the hind paws was counted for 30 minutes. The frequency of scratching in test groups administered with the drugs was compared to that in a control group administered with C48/80 alone. The decrease in the frequency of scratching in the test groups was determined as an index of inhibitory effects on itching. The decrease in the frequency of scratching was expressed as a percentage of inhibition to determine inhibitory effects of each compound on itching.

[4] = test system: New Zealand white rabbits; experiment: Inhibition of skin irritation induced by retinoic acid in New Zealand white rabbits, topical administration
From the text: Inhibition of Skin Irritation Induced by Retinoic Acid in New Zealand White Rabbits
However, it is known that retinoic acid causes irritation in its initial stage of use and further causes side effects, such as skin erythema and edema, when topically applied to the skin (Varani et al., 2003, Arch. Dermatol. Res., 295, pp 255-262). A number of attempts to reduce the skin irritation induced by retinoic acid have been made in many directions (Kim et al., 2003, Toxicol. Letters., 146, pp 65-73). […] In this experiment, New Zealand white rabbits received retinoic acid to cause skin irritation. One day before the experiment, hairs around the back of four male New Zealand white rabbits (2.0˜2.5 kg) were shaved. Four application sites, which are symmetrical by two (i.e. right upper-site-left upper site and right lower site-left lower site), were marked at the shaved back of each rabbit. 100 μl of 0.025% retinoic acid (Sigma, U.S.A.) was topically applied to all four-application sites. 30 minutes after the application, the two sites marked at the right were treated with the drug (compound 1, 1%/100 μl/each application site), and the two sites marked at the left were treated with a solvent (100 μl/each application site) alone. At this time, retinoic acid and the drug were dissolved in a mixed solution of PEG 400 and ethanol (7:3), and then topically applied twice daily for four consecutive days. On the fifth day, the application sites were visually observed to evaluate the degree of skin irritation. The degree of skin irritation was expressed in a cumulative irritation index. […] The cumulative irritation index was judged based on occurrence of erythema, and scored in accordance with the following criteria: Occurrence of no erythema (0), occurrence of slightly visible erythema (1), occurrence of distinct erythema (2), occurrence of distinct scarlet erythema (3), and occurrence of distinct crimson erythema and scaling (4).

| Structure (SMILES) | antipruritic effects (in words) (ICR mice [1]) | % Inhibition (mean ± SE) (ICR mice [1]; dose 10 mg/mouse) [%] | inhibitory effects on itching (in words) (ICR mice [3]) | % Inhibition (mean ± SE) (ICR mice [3]; dose 0.3 mg/mouse) [%] | % Inhibition (mean ± SE) (BALB/C mice; dose 3 mg) [%] | % Inhibition (mean ± SE) (BALB/C mice; dose 10 mg) [%] | % Inhibition (mean ± SE) (BALB/C mice; dose 30 mg) [%] | inhibitory effects on itching (in words) (BALB/C mice) | also measured |
| --- | --- | --- | --- | --- | --- | --- | --- | --- | --- |
| CN1CCCC(n2nc(Cc3ccc(Cl)cc3)c3ccccc3c2=O)CC1 (centres unmarked) [Azelastine chloride, reference compound] | potent antipruritic effects in a dose-dependent manner | 91.7 ± 6.8 | – | – | – | – | – | – | % Inhibition (mean ± SE) (ICR mice [1]; dose 1 mg/mouse): 63.7 ± 26.6% |
| CC(C)(C)c1ccc(CNC(=S)NCc2ccc(NS(C)(=O)=O)c(F)c2)cc1 [Compound 1, 1-(4-t-butylbenzyl)-3-(3-fluoro-4-methanesulfonylaminobenzyl)thiourea] | potent anti-pruritic effects in a dose-dependent manner | 39.8 ± 18.1 | potent antipruritic effects in a dose-dependent manner | 44.11 ± 10.36 | −22.90 ± 13.19 | 42.24 ± 24.48 | 42.97 ± 7.13 | – | % Inhibition (mean ± SE) (ICR mice [2]; dose 0.1 mg/mouse): 33.74 ± 37.73%; % Inhibition (mean ± SE) (ICR mice [2]; dose 0.3 mg/mouse): 52.03 ± 24.14%; % Inhibition (mean ± SE) (ICR mice [2]; dose 1 mg/mouse): 106.91 ± 30.13%; inhibitory effects on skin irritation (in words) (ICR mice [2]; tacrolimus): inhibitory effects on skin irritation in a dose-dependent manner; % Inhibition (mean ± SE) (ICR mice [3]; dose 0.03 mg/mouse): −6.51 ± 17.39%; % Inhibition (mean ± SE) (ICR mice [3]; dose 0.1 mg/mouse): 36.96 ± 13.44%; % Inhibition (mean ± SE) (ICR mice [3]; dose 1 mg/mouse): 69.03 ± 7.76%; % Inhibition (mean ± SE) (ICR mice [1]; dose 30 mg/mouse): 46.7 ± 24.0%; % Inhibition (mean ± SE) (ICR mice [1]; dose 100 mg/mouse): 75.8 ± 26.9%; % Inhibition (mean ± SE) (BALB/C mice; dose 100 mg): 54.11 ± 18.50%; % Inhibition (mean) ([4]; decrease in cumulative irritation index vs retinoic acid + solvent, compound 1%, 100 μl/application site, topical, rabbits): 40%; Cumulative irritation index (mean ± SE) ([4]; erythema score 0-4 on fifth day, retinoic acid 0.025% + compound 1%, 100 μl/application site, topical twice daily for four days, rabbits): 1.88 ± 0.45; inhibitory effects on skin irritation (in words) ([4]; retinoic acid, New Zealand white rabbits, topical): inhibitory effects on skin irritation |
| CC(C)(C)c1ccc(CNC(=S)NCc2ccc(NS(C)(=O)=O)c(Cl)c2)cc1 [Compound 2, 1-(4-t-butylbenzyl)-3-(3-chloro-4-methanesulfonylaminobenzyl)thiourea] | – | – | – | – | 0.89 ± 7.23 | 7.42 ± 10.43 | 44.53 ± 11.07 | – | – |
| Cc1cc(CNC(=S)NCc2ccc(C(C)(C)C)cc2)ccc1NS(C)(=O)=O [Compound 3, 1-(4-t-butylbenzyl)-3-(3-methyl-4-methanesulfonylaminobenzyl)thiourea] | – | – | – | – | 8.21 ± 5.82 | 11.78 ± 15.26 | 38.76 ± 7.77 | – | – |
| CN1CCC(=C2c3ccccc3CC(=O)c3sccc32)CC1 [Ketotifen, ketotifen, reference compound] | – | – | – | – | – | −24.91 ± 15.09 | – | no inhibitory effects on itching | – |
| CN(C)CCC(c1ccc(Cl)cc1)c1ccccn1 (centres unmarked) [chlorpheniramine, reference compound] | – | – | no inhibitory effects on itching | −77.61 ± 70.54 | −22.90 ± 28.21 | – | – | no inhibitory effects on itching | – |

— US20080255238A1, “COMPOSITION CONTAINING A THIOUREA DERIVATIVE FOR PREVENTING OR TREATING PRURITIC OR IRRITANT SKIN DISEASES” (AMOREPACIFIC CORPORATION, priority 2004, published 2008)
